{"source": "patent US20100113332A1", "about": "“METHOD OF TREATING AN INFLAMMATORY DISEASE BY DOUBLE STRANDED RIBONUCLEIC ACID” (NASTECH PHARMACEUTICAL COMPANY INC., priority 2004, published 2010)", "key": {"TNF-α": {"test_system": "TNF-α", "test": "mouse LPS response, TNF-α in blood", "assay_type": "in vivo", "conditions": "2 mg/kg siRNA, with or without PN73; vs negative controls", "procedure": "Normal [mouse type] mice were treated with various concentrations of LPS by intraperitoneal or intravenous injections. LPS responsiveness was determined by measuring levels of TNF-α in blood that was sampled various times following the LPS injection. A linear range of TNF-α induction was found between 10 ng and 100 ng for LPS injection by IP administration and up to 25 ng by IV injection. The average time for maximal TNF-α induction is 70 minutes following LPS injection.\nThe LPS induction was performed 24 hr following the last siRNA injection, 0.2 ug LPS and blood was collected at 90 minutes following LPS injection.\nThree studies of 30 animals each dosing by the following schedules: 4 consecutive days; 8 consecutive days; and 11 consecutive days. LPS induction was performed at 24 hr post siRNA injection, 25 ng LPS (IP). Blood was drawn 70 minutes following LPS injection. […] Results from measurements and 8 and 11 days gave variable results owing to technical problems partly arising from repeated tail injections."}, "[1]": {"test_system": "human TNF-α transgenic mice", "test": "RA paw score in human TNF-α transgenic mice", "conditions": "group TNF #4", "method": "For human TNF-α animal disease models, two transgenic models were used. The tg197 mice were acquired from Pasteur Hellenic Institute (Athens, Greece), and the B6.SJL-Tg(TNF) N21 mice were purchased from Taconic, Inc. (Germantown, N.Y.). The genotypes of both human TNF-α transgenic mouse models were performed by suppliers. […] All treatments were by tail vein injection twice a week. […] A similar dose regimen was used for B6.SJL-Tg(TNF) N21 mice. Clinical scores were based on a previously described scoring system (2, 3) as follows: 0 (normal), 1 (edema or distortion of paw or ankle joints), 2 (distortion of paw and ankle joints), or 3 (ankylosis of wrist or ankle joints). The sum of all four paws was scored twice a week with a maximum score of 12 per mouse.\nFor Hellenic transgenic mice, RA scores were determined (blinded to treatment) using the following criteria: 0, normal; 1, edema or distortion of paw or ankle joints; 2 distortion of paw and ankle joints; 3, ankylosis of wrist or ankle joints.\nHuman NF-α expressing mice were purchase from the Hellenic Pasture Institute, Greece) at 5 weeks old. […] During the injection periods, plasma samples were collected for ELISA testing (R&D Systems, Cat#SSTA00C), and paw scores were taken twice a week as an accepted index of RA disease progression and therapeutic efficacy (Table 19).\nDue to the difference in the starting point (some animals present with scores at earlier points), the scores have been adjusted to 0 for all animals in the experiments. Each paw is given a score between 0 and 3, with the highest score of 12, according to the following scoring index. • 0: Normal • 1: edema or distortion of paw or ankle joints • 2: distortion of paw and ankle joints • 3: ankylosis of wrist or ankle joints."}, "TNF-α mRNA": {"test_system": "TNF-α mRNA", "test": "TNF-α knockdown in human monocytes (branch DNA);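 note: LPS-activated human CD14+ monocytes, TNF-α mRNA read by branched DNA assay and normalized to cypB mRNA, knockdown compared with random-sequence Qneg siRNA as negative control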", "from_the_text": "For mRNA measurement, branch DNA technology from Genospectra (CA) was used according to manufacturer's specification. Human monocytes (CD14+) treated with LPS induce TNF-α-specific mRNA within approximately 2 hrs, followed by peak levels of TNF-α protein 2 hrs later. siRNAs were screened for knockdown activity by transfecting monocytes with siRNA candidate sequences using Lipofectamine 2000, treating infected cells with LPS, and measuring TNF-α mRNA levels approximately 16 hrs later.\nTo quantitate mRNA level in the cells, both house keeping gene (cypB) and target gene (TNF-α) mRNA were measured, and the reading for TNF-α was normalized with cypB to obtain relative luminescence unit.\nQneg represents a random siRNA sequence and functions as the negative control in these experiments."}}}
{"sequence": "AAUCCUCAGCCUCUUCUCCUU (siRNA; chemistry not fully specified) [LC13]", "values": [{"measurement": "circulating TNF-α resulting from LPS induction", "setting": "TNF-α", "value": "lowered amounts of circulating TNF-α"}, {"measurement": "Relative effect of siRNA, paw score", "setting": "[1]", "value": "Overall low paw score"}, {"measurement": "TNF-α knockdown activity (FIG. 6-C)", "setting": "TNF-α mRNA; absence of PN73, 0-2.5 nM", "value": "little knockdown activity"}, {"measurement": "KD (%) TNF-α", "setting": "TNF-α mRNA; siRNA 4 nM complexed with 1.6 uM PN73", "value": 48.29, "unit": "%"}, {"measurement": "KD (%) TNF-α", "setting": "TNF-α mRNA; siRNA 4 nM complexed with 1.6 uM PN509", "value": 25.04, "unit": "%"}, {"measurement": "KD (%) TNF-α", "setting": "TNF-α mRNA; siRNA 20 nM complexed with 0.5 uM PN250", "value": 20.65, "unit": "%"}, {"measurement": "KD (%) TNF-α", "setting": "TNF-α mRNA; siRNA 20 nM complexed with 0.75 uM PN250", "value": 18.04, "unit": "%"}, {"measurement": "KD (%) TNF-α", "setting": "TNF-α mRNA; siRNA 20 nM complexed with 1 uM PN250", "value": 31.35, "unit": "%"}, {"measurement": "decrease in TNF-α gene expression relative to Qneg control (FIG. 6-B)", "setting": "TNF-α mRNA; siRNA complexed with PN73 1:1, 0-2.5 nM", "value": "~15", "unit": "%"}]}
